Experiments:
Type in all cases: cell-based
human TASK-1 [1] = target: T1, human TASK-1 (Homo sapiens (Human), UniProt O14649); experiment: Two-electrode voltage clamp of human TASK-1 channels expressed in Xenopus laevis oocytes
Procedure: (§1) B-1. In Vitro Electrophysiological Analysis of the Human TASK-1 and TASK-3 Channels Via Two-Electrode Voltage Clamp Technique in Xenopus laevis Oocytes
(§2) Xenopus laevis oocytes were selected as described elsewhere by way of illustration [Decher et al., FEBS Lett. 492, 84-89 (2001)]. Subsequently, the oocytes were injected with 0.5-5 ng of a cRNA solution coding for TASK-1 or TASK-3. For the electrophysiological analysis of the channel proteins expressed in the oocytes, the two-electrode voltage clamp technique [Stiihmer, Methods Enzymol. 207, 319-339 (1992)] was used. The measurements were conducted as described [Decher et al., FEBS Lett. 492, 84-89 (2001)] at room temperature (21-22° C.) using a Turbo TEC 10CD amplifier (NPI), recorded at 2 kHz and filtered with 0.4 kHz. Substance administration was performed using a gravitation-driven perfusion system. Here, the oocyte is located in a measuring chamber and exposed to the solution stream of 10 ml/min. The level in the measuring chamber is monitored and regulated by sucking off the solution using a peristaltic pump.

human TASK-3 [2] = target: T2, human TASK-3 (Homo sapiens (Human), UniProt Q9NPC2); experiment: Two-electrode voltage clamp of human TASK-3 channels expressed in Xenopus laevis oocytes
T2 sequence (Q9NPC2 whole entry): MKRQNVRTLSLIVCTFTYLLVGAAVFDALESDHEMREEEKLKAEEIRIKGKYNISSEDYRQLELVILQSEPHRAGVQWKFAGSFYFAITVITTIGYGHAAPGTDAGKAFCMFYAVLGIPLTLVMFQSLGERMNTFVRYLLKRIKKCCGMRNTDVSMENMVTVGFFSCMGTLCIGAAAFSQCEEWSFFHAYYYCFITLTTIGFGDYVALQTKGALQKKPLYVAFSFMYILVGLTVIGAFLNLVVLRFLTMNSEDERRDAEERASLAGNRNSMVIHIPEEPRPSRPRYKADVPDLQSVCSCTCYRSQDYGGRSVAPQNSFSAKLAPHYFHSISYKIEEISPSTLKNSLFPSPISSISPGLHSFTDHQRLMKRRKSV
Procedure: as §1, §2

human TASK-1 [3] = target: T1, human TASK-1; experiment: Inhibition of recombinant TASK-1 in stably transfected CHO cells (voltage-sensitive dye, 40 mM KCl depolarization); conditions: 40 mM potassium chloride
Procedure: (§3) B-2. Inhibition of Recombinant TASK-1 and TASK-3 In Vitro
(§4) The investigations on the inhibition of the recombinant TASK-1 and TASK-3 channels were conducted using stably transfected CHO cells. The compounds according to the invention were tested in this case by application of 40 mM potassium chloride in the presence of a voltage-sensitive dye according to the methods described in detail in the following references [Whiteaker et al., Validation of FLIPR membrane potential dye for high-throughput screening of potassium channel modulators, J. Biomol. Screen. 6 (5), 305-312 (2001); Molecular Devices FLIPR Application Note: Measuring membrane potential using the FLIPR® membrane potential assay kit on Fluorometric Imaging Plate Reader (FLIPR®) systems, http://www.moleculardevices.com/reagents-supplies/assay-kits/ion-channels/flipr-membrane-potential-assay-kits]. The activity of the test substances was determined as their ability to inhibit a depolarization induced in the recombinant cells by 40 mM potassium chloride. The concentration which can block half of this depolarization is referred to as IC50.

human TASK-3 [4] = target: T2, human TASK-3; experiment: Inhibition of recombinant TASK-3 in stably transfected CHO cells (voltage-sensitive dye, 40 mM KCl depolarization); conditions: 40 mM potassium chloride
Procedure: as §3, §4

T1 sequence (O14649 whole entry): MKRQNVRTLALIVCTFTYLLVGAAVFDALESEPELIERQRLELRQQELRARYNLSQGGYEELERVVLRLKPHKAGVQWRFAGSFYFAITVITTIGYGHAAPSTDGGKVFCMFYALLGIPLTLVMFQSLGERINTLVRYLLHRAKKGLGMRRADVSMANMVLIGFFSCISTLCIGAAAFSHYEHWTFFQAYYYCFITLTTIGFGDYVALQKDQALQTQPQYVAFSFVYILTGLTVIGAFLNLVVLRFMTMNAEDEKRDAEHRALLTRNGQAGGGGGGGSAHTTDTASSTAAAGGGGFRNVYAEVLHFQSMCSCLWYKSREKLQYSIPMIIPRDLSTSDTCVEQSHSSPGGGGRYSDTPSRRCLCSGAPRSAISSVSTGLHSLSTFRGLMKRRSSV

| IC50 (human TASK-1 [3]) [nM] | IC50 (human TASK-3 [4]) [nM] | Compound | further results |
| --- | --- | --- | --- |
| 206 | 485 | COc1cccc(C(=O)N2CC3CN(Cc4c(-c5ccc(Br)cc5)nc5ccccn45)CC3C2)c1 (centres unmarked) [Example 10] | IC50 (human TASK-1 [1]): 31.2 ± 1.7 nM; IC50 (human TASK-3 [2]): 970 ± 220 nM |
| 920 | 2100 | CN(C(=O)N1CC2CN(Cc3c(-c4ccc(Br)cc4)nc4ccccn34)CC2C1)c1ccccc1 (centres unmarked) [Example 29, 5-{[2-(4-Bromophenyl)imidazo[1,2-a]pyridin-3-yl]methyl}-N-methyl-N-phenylhexahydropyrrolo[3,4-c]pyrrole-2(1H)-carboxamide] |  |
| 480 | 1200 | O=C(N1CC2CN(Cc3c(-c4ccc(Br)cc4)nc4ccccn34)CC2C1)N1CCCc2ccccc21 (centres unmarked) [Example 30] |  |
| 1500 | 1900 | O=C(Nc1ccc(F)cc1F)N1CC2CN(Cc3c(-c4ccc(Br)cc4)nc4ccccn34)CC2C1 (centres unmarked) [Example 38, 5-{[2-(4-Bromophenyl)imidazo[1,2-a]pyridin-3-yl]methyl}-N-(2,4-difluorophenyl)hexahydropyrrolo[3,4-c]pyrrole-2(1H)-carboxamide] |  |
| 580 | 2900 | O=C(Nc1ccccc1F)N1CC2CN(Cc3c(-c4ccc(Br)cc4)nc4ccccn34)CC2C1 (centres unmarked) [Example 41] |  |
| 1700 | 2000 | O=C(Nc1ccc(Cl)c(C(F)(F)F)c1)N1CC2CN(Cc3c(-c4ccc(Br)cc4)nc4ccccn34)CC2C1 (centres unmarked) [Example 43] |  |
| 700 | 2000 | O=C(Nc1cc(C(F)(F)F)ccc1Cl)N1CC2CN(Cc3c(-c4ccc(Br)cc4)nc4ccccn34)CC2C1 (centres unmarked) [Example 44] |  |
| 460 | 2200 | CC(NC(=O)N1CC2CN(Cc3c(-c4ccc(Br)cc4)nc4ccccn34)CC2C1)c1ccccc1 (centres unmarked) [Example 46] |  |
| 1000 | 240 | O=C(Nc1ccc(F)cc1)N1CC2CN(Cc3c(-c4ccc(Br)cc4)nc4ccccn34)CC2C1 (centres unmarked) [Example 47] |  |

Continued, molecule first:

| Compound | IC50 (human TASK-1 [3]) [nM] | IC50 (human TASK-3 [4]) [nM] | further results |
| --- | --- | --- | --- |
| COc1cccc(C(=O)N2CC3CN(Cc4c(-c5ccc(Cl)cc5)nc5ccccn45)CC3C2)n1 (centres unmarked) [Example 4, [5-{[2-(4-Chlorophenyl)imidazo[1,2-a]pyridin-3-yl]methyl}hexahydropyrrolo[3,4-c]pyrrol-2(1H)-yl](6-methoxypyridin-2-yl)methanone] | 947 | 2300 | IC50 (human TASK-1 [1]): 59.9 ± 16.2 nM; IC50 (human TASK-3 [2]): 256 ± 48.8 nM |
| COc1cccc(C(=O)N2CC3CN(Cc4c(-c5ccc(Cl)cc5)nc5ccccn45)CC3C2)c1 (centres unmarked) [Example 17] | 721 | 1900 | IC50 (human TASK-1 [1]): 9.3 ± 2.5 nM; IC50 (human TASK-3 [2]): 21.8 ± 2.2 nM |
| COc1cccc(C(=O)N2CC3CN(Cc4c(-c5ccc(C(C)C)cc5)nc5ccccn45)CC3C2)n1 (centres unmarked) [Example 25] | 230 | 410 | IC50 (human TASK-1 [1]): 62.2 ± 7.9 nM; IC50 (human TASK-3 [2]): 44.1 ± 5.8 nM |
| CC(C)COC(=O)N1CC2CN(Cc3c(-c4ccc(Br)cc4)nc4ccccn34)CC2C1 (centres unmarked) [Example 32] | 1100 | 1200 |  |
| O=C(OCc1ccccc1)N1CC2CN(Cc3c(-c4ccc(Br)cc4)nc4ccccn34)CC2C1 (centres unmarked) [Example 33] | 460 | 4400 |  |
| O=C(OC1CCCC1)N1CC2CN(Cc3c(-c4ccc(Br)cc4)nc4ccccn34)CC2C1 (centres unmarked) [Example 34] | 500 | 3300 |  |
| CC(C)OC(=O)N1CC2CN(Cc3c(-c4ccc(Br)cc4)nc4ccccn34)CC2C1 (centres unmarked) [Example 35] | 700 | 1700 |  |
| O=C(Oc1cccc(C(F)(F)F)c1)N1CC2CN(Cc3c(-c4ccc(Br)cc4)nc4ccccn34)CC2C1 (centres unmarked) [Example 36] | 180 | 450 |  |
| O=C(OCCF)N1CC2CN(Cc3c(-c4ccc(Br)cc4)nc4ccccn34)CC2C1 (centres unmarked) [Example 37] | 600 | 1800 |  |
| O=C(NC1CCCCC1)N1CC2CN(Cc3c(-c4ccc(Br)cc4)nc4ccccn34)CC2C1 (centres unmarked) [Example 45] | 2300 | 5800 |  |
| COc1ccc(F)c(C(=O)N2CC3CN(Cc4c(-c5ccc(C(C)C)cc5)nc5ccccn45)CC3C2)n1 (centres unmarked) [Example 48] | 78 | 79 |  |
| COc1ccc(C)c(C(=O)N2CC3CN(Cc4c(-c5ccc(Cl)cc5)nc5ccccn45)CC3C2)n1 (centres unmarked) [Example 49] | 94 | 4.6 |  |
| COc1ccc(F)c(C(=O)N2CC3CN(Cc4c(-c5ccc(Cl)cc5)nc5ccccn45)CC3C2)n1 (centres unmarked) [Example 50] | 1100 | 110 |  |
| COc1ccc(Cl)c(C(=O)N2CC3CN(Cc4c(-c5ccc(Cl)cc5)nc5ccccn45)CC3C2)n1 (centres unmarked) [Example 51] | 1400 | 80 |  |
| O=C(c1ccccc1)N1CC2CN(Cc3c(-c4ccc(Cl)cc4)nc4ccc(-c5ccccc5)cn34)CC2C1 (centres unmarked) [Example 160 in WO 2014/187922, reference compound] | 15000 | 2400 |  |
| O=C(c1ccccc1)N1CC2CN(Cc3c(-c4ccc(Cl)cc4)nc4ccc(-c5ccccc5)cn34)CC2C1 (centres unmarked) [comparative compound, reference compound] |  |  | IC50 (human TASK-1 [1]): > 10000 nM; inhibition at 1 µM (human TASK-1 [1]; 1 μM): 11.4 ± 1.5%; inhibition at 10 µM (human TASK-1 [1]; 10 μM): 37.2 ± 7.5%; TASK-3 IC50 (human TASK-3 [2]): inactive; inhibition at 1 µM (human TASK-3 [2]; 1 μM): 5.6 ± 1.3%; inhibition at 10 µM (human TASK-3 [2]; 10 μM): 8.9 ± 0.9% |

Source: patent publication US10414765B2, “Substituted perhydropyrrolo[3,4-c]pyrrole derivatives and the use of same” (BAYER PHARMA AKTIENGESELLSCHAFT, priority 2015, dated 2019)
